Test results as given in patent publication US20070054916A1, “Aryl nitrogen-containing bicyclic compounds and methods of use” (Amgen Inc., priority 2004, published 2007).

What was measured:
[1] = test system: production of TNF by monocytes activated with bacterial lipopolysaccharide (LPS); test: Lipopolysaccharide-activated monocyte TNF production assay; format: cell-based; details: Homo sapiens, read-out: IC50 values in the monocyte assay (LPS induced TNF release)
Outline: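 Adherent human PBMC-derived monocytes (~70%) in DMEM/2% FCS were pre-incubated 60 min with nine two-fold compound dilutions, then stimulated with E. coli K532 LPS (added as 30 ng/ml solution) for 4 h at 37 °C. Supernatant TNF-α was measured by sandwich ELISA. IC50 was taken from a polynomial fit of TNF versus compound concentration.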

LCK KD GST (225-509) = LCK KD GST (225-509) (Homo sapiens, UniProt P06239); test: LCK Homogenous Time Resolved Flourescent (HTRF) kinase assay; details: average IC50 value in the human HTRF assay for the inhibition of the Lck kinase enzyme
LCK KD GST (225-509), sequence (P06239 225-509): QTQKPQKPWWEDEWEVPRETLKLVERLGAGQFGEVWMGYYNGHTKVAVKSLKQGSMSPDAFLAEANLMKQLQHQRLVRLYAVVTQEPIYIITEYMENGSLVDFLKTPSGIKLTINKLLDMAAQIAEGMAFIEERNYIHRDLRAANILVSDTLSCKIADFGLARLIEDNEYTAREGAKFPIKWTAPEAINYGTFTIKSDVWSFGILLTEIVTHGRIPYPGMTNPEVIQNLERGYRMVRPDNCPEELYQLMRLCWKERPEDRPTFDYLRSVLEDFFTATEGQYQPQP

## CNc1ncc2cc(-c3cc(C(=O)Nc4ccc(OC)c(C(F)(F)F)c4)ccc3C)cnc2n1 [Example 184, 4-methyl-3-(2-(methylamino)pyrido [2,3-d]pyrimidin-6-yl)-N-(4-(methyloxy)-3-(trifluoromethyl)phenyl)benzamide]
[1]
  IC50: ≤ 25 µM
LCK KD GST (225-509)
  IC50: ≤ 1 µM
